Data taken from paper PMC7672424 (Nucleic Acids Research, 2020).

What follows are molecules tested on FAM-TTA45-TAMRA (DNA, G4) GGGTTAGGGTTAGGGTTAGGGTTAGGGTTAGGGTTAGGGTTAGGG (assay: FRET melting). Details: 100 mM K+ (KCl) plus 10 mM potassium phosphate; pH 7.0; 50 µM compound, 0.5 µM DNA.

SMILES | ΔTm
C(=N\Nc1nnc2c(n1)[nH]c1ccccc12)/c1c2ccccc2cc2ccccc12 | 1.54 °C
CCCNC(=O)Cn1nc(-c2ccc(CC)cc2)c2cnc3cc4c(cc3c21)OCCO4 | 1.12 °C
CN(Cc1ccc2c(c1)OCO2)C(=O)c1nn(C)c2c1CN(C(=O)C1=NOC(c3cccs3)C1)CC2 (stereo not drawn) | 0.70 °C
COc1cc2c(-c3ccccc3[N+](=O)[O-])nc3c(c(-c4ccccc4)nn3-c3ccccc3)c2cc1OC | 3.85 °C
Cc1cc(C)n(-c2nnc3c4ccccc4n(CC(=O)NCCc4nc5ccccc5[nH]4)c3n2)n1 | 2.17 °C
Oc1ccccc1/C=N/Nc1nnc2c3ccccc3n(Cc3ccccc3)c2n1 | 1.53 °C
CN1CCN(CCCSc2nnc3c(n2)[nH]c2ccccc23)CC1 [Compound 3] | 9.04 °C
CCC(Sc1nc2cc3c(cc2c(=O)n1Cc1ccc(C(=O)NCc2ccc4c(c2)OCO4)cc1)OCO3)C(=O)N1CCOCC1 (stereo not drawn) [Compound 12] | 5.11 °C

The molecules below were run on TTA45 (assay: FRET melting assay, stabilization of TTA45). Details: 0.5 µM TTA45; 20 µM compounds; 10 mM K2HPO4/KH2PO4, 100 mM KCl, pH 7.0.
Format: binding, human
Description: Based on the conventional G-quadruplex ligand design ([46]), ∼400 compounds were selected from Chinese National Compound library of Peking University (PKU-CNCL). These compounds were evaluated for their ability to bind to TTA45 by Fluorescence Resonance Energy Transfer (FRET) assay (Supplementary Tables S1 and S2) ([47]). […] Compounds 21-38 were purchased to study their binding with TTA45 by FRET (Supplementary Table S3). […] page 4: Table S2. Stabilization of TTA45 as determined by FRET assays (continued). Compounds Structures ΔTm/°C Compounds Structures ΔTm/°C 23 10.3 25 14.6 […] OH 24 […] KCl, pH 7.0) was determined by FRET procedure, and Tm/°C were derived by their difference. The concentration of compounds 21-26 were 20 μM , and other compounds were 50 μM. FRET assay was carried out on the Real-Time PCR 3.2 machine (Analytik Jena, Germany). The total reaction volume was 20 μL with 0.5 μM of oligonucleotide labelled with FAM at the 3' end and TAMRA at 5' end in 10 mM K2HPO4/KH2PO4 (pH 7.0) containing 100 mM KCl. […] Then compounds with various concentrations were added into the DNA samples.

SMILES | ΔTm/°C, TTA45 stabilization by FRET (Table S3)
CCOc1ccc(-c2nnc3c4cc5c(cc4[nH]cc2-3)OCCO5)cc1 [Compound 34] | 3.55 ± 1.20 °C
COc1ccc(-c2nn(-c3ccc(F)cc3)c3c2cnc2cc4c(cc23)OCO4)cc1 [Compound 37] | 2.19 ± 0.91 °C
Fc1ccc(-n2nc(-c3ccccc3)c3cnc4cc5c(cc4c32)OCO5)cc1 [Compound 38] | 0.30 ± 0.82 °C

Same assay, conditions: 0.5 µM TTA45; compounds 50 µM; 10 mM K2HPO4/KH2PO4, 100 mM KCl, pH 7.0

SMILES | ΔTm/°C, stabilization of TTA45 by FRET (Table S2)
CN1CCN(CCCSc2nnc3c(n2)[nH]c2ccccc23)CC1 [Compound 3] | 9.04 °C
Oc1ccccc1C=NNc1nnc2c3ccccc3n(Cc3ccccc3)c2n1 [Compound 5] | 1.53 °C
CCC(Sc1nc2cc3c(cc2c(=O)n1Cc1ccc(C(=O)NCc2ccc4c(c2)OCO4)cc1)OCO3)C(=O)N1CCOCC1 (stereo not drawn) [Compound 12] | 5.11 °C
Cc1ccc(Cn2cc(C(=O)c3ccc4c(c3)OCO4)c(=O)c3cc4c(cc32)OCO4)cc1 [Compound 15] | 0.70 °C

Same assay, conditions: FRET assay

SMILES | stabilization of TTA45 (in words, SAR)
COc1ccc(-c2nn(-c3ccc(F)cc3)c3c2cnc2cc4c(cc23)OCO4)cc1 [Compound 37] | negligible stabilization
Fc1ccc(-n2nc(-c3ccccc3)c3cnc4cc5c(cc4c32)OCO5)cc1 [Compound 38] | negligible stabilization

What follows are molecules tested on HepG2 (assay: Cell cytotoxicity assay (CCK8)). Details: CCK8, 48 h treatment.
Format: cell-based, human
Description: (§1) The cell growth effect of BMPQ-1 against different cell lines were tested via measuring the quantity of living cells using the Cell Counting Kit-8 (CCK8) (DOJINDO, Japan) according to the instruction. Cells were seeded in a 96-well plate (5 × 10^3 cells/well) and grown for 24 h for attachment. Then the cells were treated with various concentrations of BMPQ-1 and incubated at 37°C with 5% CO2 for 48 h. After incubation, the old medium was discarded followed by adding fresh medium containing 10% FBS in DMEM. Then 100 μl CCK-8 (10% in grow medium) was added into each well, and the cells were further incubated for 1 h. The optical density (OD) was detected at 450 nm by an automated microplate reader (Bio-Rad). The IC50 values were derived from the curves of the mean percentage of survival against the drug concentration. All the experiments were performed in triplicate.
(§2) A Cell Counting Kit-8 (CCK8) (DOJINDO, Japan) was employed to evaluate the cytotoxicity of BMPQ-1 on human alveolar basal epithelial cancer cell line (A549), human hepatocellular carcinoma cancer cell line (HepG2), human gastric cancer cell line (MGC-803), human colon adenocarcinoma (HT29), human normal liver Cells (HL-7702).

SMILES | IC50
CN(C)c1ccc(Nc2c3ccc(NC(=O)CCN4CCCC4)cc3nc3cc(NC(=O)CCN4CCCC4)ccc23)cc1 [BRACO-19, reference compound] | 6.25 ± 0.8 µM

The molecules below were run on A549 (assay: Cell cytotoxicity assay (CCK8)). Details: CCK8, 48 h treatment.
Format: cell-based, human
Description: as §1, §2

SMILES | IC50
CN(C)c1ccc(Nc2c3ccc(NC(=O)CCN4CCCC4)cc3nc3cc(NC(=O)CCN4CCCC4)ccc23)cc1 [BRACO-19, reference compound] | 6.71 ± 0.45 µM

These molecules were tested on HT29 (assay: Cell cytotoxicity assay (CCK8)). Details: CCK8, 48 h treatment.
Format: cell-based, human
Description: as §1, §2

SMILES | IC50
CN(C)c1ccc(Nc2c3ccc(NC(=O)CCN4CCCC4)cc3nc3cc(NC(=O)CCN4CCCC4)ccc23)cc1 [BRACO-19, reference compound] | 14.2 ± 1.78 µM

These molecules were tested on MGC-803 (assay: Cell cytotoxicity assay (CCK8)). Details: CCK8, 48 h treatment.
Format: cell-based, human
Description: as §1, §2

SMILES | IC50
CN(C)c1ccc(Nc2c3ccc(NC(=O)CCN4CCCC4)cc3nc3cc(NC(=O)CCN4CCCC4)ccc23)cc1 [BRACO-19, reference compound] | 7.07 ± 0.89 µM
